Assay results: patent publication US20060270742A1, “Compositions and methods for the treatment of neurodegenerative diseases” (priority 2005, published 2006)

Experiments:
SMN protein [1] = experiment: SMN cytoblot assay in SMA patient fibroblasts; type: cell-based, human; conditions: for SMN protein levels: SMA patient fibroblasts, cytoblot; for SMN per viable cell (normalized hit): SMN cytoblot relative to cell number estimated by Alamar blue
Method: One method for monitoring SMN protein levels in cells is through use of a cytoblot assay, in which cells are fixed and probed with an antibody against a target protein of interest.
Using the cytoblot assay, we can clearly distinguish SMN protein levels in patient (GM03813) versus carrier fibroblast cells (GM03814).
The SMN cytoblot protocol is described below.
• 1. Plate 50 μl per well of 300,000 cells/ml (15,000 cells per well) into Nunc white 384-well opaque-bottomed plates. • 2. Incubate plates at 37° C., 5% CO2 overnight. Day 2 • 1. Aspirate media from wells using Tecan plate washer. • 2. Fix cells by adding 20 μl/well of cold methanol (kept in −20° C. freezer). • 3. Incubate plates in 4° C. refrigerator for 10 minutes. • 4. Aspirate methanol using Tecan plate washer. • 5. Add 50 μl/well of primary Ab solution, (BD anti-SMN Ab diluted to 125 ng/ml in 10% fetal goat serum PBST), using multi-drop. • 6. Seal plates and incubate overnight at room temperature. Day 3 • 1. After 16-20 hrs incubation, wash plates with PBST 2× using Tecan plate washer. • 2. Add 50 μl of secondary Ab solution, (Santa Cruz goat anti-Mouse-HRP diluted to 67 ng/ml in 10% fetal goat serum PBST). • 3. Seal plates and incubate 2 hrs at room temperature. • 4. Wash plates with PBST 2× using Tecan plate washer. • 5. Add 50 μl/well 10% fetal goat serum PBST. • 6. Incubate in 4° C. refrigerator for 10 minutes. • 7. Aspirate plates using plate washer and add ECL luminescence solution, 20 μl/well. • 8. Measure luminescence on plate reader. Automated Scoring
We scored each compound based on the maximum signal-to-noise ratio (SNR) found among its dose curves. These scores are based on edge-corrected SMN data, using only plates that passed quality control. The untreated level on each plate was found by taking the median of the untreated wells, and for each treated well we calculated a log(T/U) ratio. Each curve was generated in triplicate on each plate, so each point on a compound's dose curve was obtained by determining the median for the replicate points. Each ratio thus has an error estimate from the scatter between the triplicate data points (1.5 times the median absolute deviation from the median). For each dose curve, we calculated the SNR for each data point log(T/U)/error, and chose the maximum point as our indicator of SMN induction activity. Since this is a signal-to-noise score, scores much greater than one indicate significant activity, assuming normal statistics. We decided to use a cutoff signal-to-noise ratio of 6. This selection represents a considerable enrichment towards visually-selected compounds. We identified 100 out of 2000 compounds producing scores>6. This included 13 of the 28 visual selections.
• 1. […] Type 3 reversal of curve hits […]

SMN protein [2] = experiment: Western blot of SMN protein in treated cells; type: cell-based, human; conditions: 72 hours treatment, densitometry, fold change relative to vehicle (DMSO)
Method: Effects on SMN protein levels were also confirmed by western blots. Cells were treated with compound or vehicle for 72 hours. Cell lysates were prepared and analyzed by western blot. SMN protein levels were quantified by densitometry and normalized to an internal control protein (GAPdH or EIF4e) (FIGS. 4-6). The SMN/control ratios shown in FIGS. 4-6 depict the fold change relative to vehicle (DMSO) control.

Compound | SMN protein levels (SMN protein [1]) | SMN per viable cell (normalized hit) (SMN protein [1]) | SMN protein relative to control proteins GAPdH and eIF4E (SMN protein [2])
NC12CC3CC(CC(C3)C1)C2 [amantadine] | increase SMN protein levels | normalized hits | 
CC12CC3CC(C)(C1)CC(N)(C3)C2 [memantine, 1-amino-3,5-dimethyl adamantane] | increase SMN protein levels | normalized hits | increases in SMN protein
